System: Coxsackie B3 virus (strain Nancy)
Assay: microbe, parasite or virus in culture
Type: cell-based
Details: Enterovirus B, B3, Vero, 48 h, read-out: IC50 (50% inhibitory concentration)

NC(=O)c1ncn([C@@H]2O[C@H](CO)[C@@H](O)[C@H]2O)n1 [Ribavirin] gave an IC50 of 56 ± 8 µM.

Reference: paper PMC8113020 (Chemistry of Heterocyclic Compounds, 2021)
